Laboratory results from patent US8546406B2, “Heterocyclic compounds as metap-2 inhibitors” (Merck Patent GmbH, priority 2009, dated 2013).

Target: MetAP-2 (Homo sapiens, UniProt P50579)
Test: MetAP-2 activity measurement (coupled enzymatic reactions, substrate Met-Arg-Ser, photometric at 450 nm)
Assay type: biochemical
Details: Inhibition of MetAP-2; read-out: IC50 enzyme
Description: The MetAP-2 activity is determined by coupling enzymatic reactions. The tripeptide Met-Arg-Ser (MAS) is employed as substrate. The methionine liberated is firstly converted into Metox and H2O2 by L-aminooxidase (AAO). In the second step, the peroxidase (POD) with the aid of the H2O2 catalyses the oxidation of the leukodye dianisidine to dianisidineox, the increase of which is detected photometrically at 450 nm.
MetAP-2 activity can be recorded continuously as kinetics. The reaction scheme illustrates that one mol of dianisidineox is formed per mol of methionene. The MetAP-2 enzyme activity can therefore be calculated directly as Δ absorption per time unit. Qualification of the MetAP-2 activity (mol of Met/time unit) is possible with the aid of the dianisidineox extinction coefficient. The change in extinction per time unit is depicted graphically and a slope calculation is carried out in the visually linear region of the reaction.

MetAP-2, sequence (P50579 whole entry, species assumed): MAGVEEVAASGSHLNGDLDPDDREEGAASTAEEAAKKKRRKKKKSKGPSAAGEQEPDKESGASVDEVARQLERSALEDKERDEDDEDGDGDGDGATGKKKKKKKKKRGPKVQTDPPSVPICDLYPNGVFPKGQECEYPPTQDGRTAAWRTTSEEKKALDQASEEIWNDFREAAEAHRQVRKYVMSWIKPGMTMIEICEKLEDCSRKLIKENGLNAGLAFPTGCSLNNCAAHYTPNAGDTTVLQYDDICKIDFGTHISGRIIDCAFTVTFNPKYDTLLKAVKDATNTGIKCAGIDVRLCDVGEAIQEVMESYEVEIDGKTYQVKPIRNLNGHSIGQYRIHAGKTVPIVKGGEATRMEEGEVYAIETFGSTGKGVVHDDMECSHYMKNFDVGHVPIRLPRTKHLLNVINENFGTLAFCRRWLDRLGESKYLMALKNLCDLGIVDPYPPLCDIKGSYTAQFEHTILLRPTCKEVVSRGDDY

Structure (SMILES) | IC50 [µM]
c1ccc2c(OC[C@H]3CCCN3c3ccnc4nncn34)cccc2c1 [Compound A4, 5-[(R)-2-(naphthalen-1-yloxymethyl)pyrrolidin-1-yl]-[1,2,4]-triazolo[4,3-a]pyrimidine] | > 10
c1ccc2c(OC[C@H]3CCCN3c3ccnc4ncnn34)ccnc2c1 [Compound A8] | 0.01 to 1
FC(F)(F)Oc1ccc2nccc(OC[C@H]3CCCN3c3ccnc4ncnn34)c2c1 [Compound A9] | 0.01 to 1
FC(F)(F)c1ccc2nccc(OC[C@H]3CCCN3c3ccnc4ncnn34)c2c1 [Compound A10] | 0.01 to 1
O=C(NCc1ccc(F)cc1)c1cc(OC[C@H]2CCCN2c2ccnc3ncnn23)c2ccccc2n1 [Compound A11] | 0.01 to 1
O=C(NCCc1ccc(F)cc1)c1cc(OC[C@H]2CCCN2c2ccnc3ncnn23)c2ccccc2n1 [Compound A12] | 0.01 to 1
CCNC(=O)c1cc(OC[C@H]2CCCN2c2ccnc3ncnn23)c2ccccc2n1 [Compound A13] | 0.01 to 1
c1ccc2c(OC[C@H]3CCCN3c3ccnc4ncnn34)nccc2c1 [Compound A16] | 0.01 to 1
c1cc(OC[C@H]2CCCN2c2ccnc3ncnn23)c2ccncc2c1 [Compound A17] | 0.01 to 1
O=C(NCCCN1CCCC1=O)c1cc(OC[C@H]2CCCN2c2ccnc3ncnn23)c2ccccc2n1 [Compound A18] | 0.01 to 1
CCOC(=O)c1n[nH]c(C)c1OC[C@H]1CCCN1c1ccnc2ncnn12 [Compound A19] | 0.01 to 1
c1ccc2c(OC[C@H]3CCCN3c3ccnc4ncnn34)ccc(CNCCN3CCOCC3)c2c1 [Compound A20] | 0.01 to 1
c1ccc2c(OC[C@H]3CCCN3c3ccnc4ncnn34)ccc(CNCCCN3CCOCC3)c2c1 [Compound A21] | 0.01 to 1
O=C(NCc1ccccc1)c1cc(OC[C@H]2CCCN2c2ccnc3ncnn23)c2ccccc2n1 [Compound A22] | 0.01 to 1
O=C(NCCc1c[nH]c2ccccc12)c1cc(OC[C@H]2CCCN2c2ccnc3ncnn23)c2ccccc2n1 [Compound A23] | 0.01 to 1
NS(=O)(=O)c1ccc(CCNC(=O)c2cc(OC[C@H]3CCCN3c3ccnc4ncnn34)c3ccccc3n2)cc1 [Compound A24] | 0.01 to 1
CC(C)(C)OC(=O)N1CCc2cccc(OC[C@H]3CCCN3c3ccnc4ncnn34)c2C1 [Compound A25] | 1 to 10
O=C(OC[C@H]1CCCN1c1ccnc2ncnn12)c1ccc(F)cc1 [Compound A26] | 0.01 to 1
c1cc2c(c(OC[C@H]3CCCN3c3ccnc4ncnn34)c1)CNCC2 [Compound A27] | 0.01 to 1
O=C(NCCc1ccc(Cl)cc1)c1cc(OC[C@H]2CCCN2c2ccnc3ncnn23)c2ccccc2n1 [Compound A28] | 1 to 10
CC(C)(C)OC(=O)N[C@H](CC(N)=O)C(=O)N1CCc2cccc(OC[C@H]3CCCN3c3ccnc4ncnn34)c2C1 [Compound A29] | 0.01 to 1
CC(C)(C)OC(=O)NCC(=O)N1CCc2cccc(OC[C@H]3CCCN3c3ccnc4ncnn34)c2C1 [Compound A31] | 0.01 to 1
CC(=O)N[C@@H](CC(N)=O)C(=O)N1CCc2cccc(OC[C@H]3CCCN3c3ccnc4ncnn34)c2C1 [Compound A32] | 0.01 to 1

Structure (SMILES) | IC50 [µM]
CC(=O)N1CCc2cccc(OC[C@H]3CCCN3c3ccnc4ncnn34)c2C1 [Compound A33] | 0.01 to 1
O=C(c1ccno1)N1CCc2cccc(OC[C@H]3CCCN3c3ccnc4ncnn34)c2C1 [Compound A34] | 0.01 to 1
CC(C)(C)OC(=O)NCCCCN1CCc2cccc(OC[C@H]3CCCN3c3ccnc4ncnn34)c2C1 [Compound A35] | 0.01 to 1
NC(=O)C[C@@H](N)C(=O)N1CCc2cccc(OC[C@H]3CCCN3c3ccnc4ncnn34)c2C1 [Compound A36] | 0.01 to 1
NCC(=O)N1CCc2cccc(OC[C@H]3CCCN3c3ccnc4ncnn34)c2C1 [Compound A37] | 0.01 to 1
N#CCCCCN1CCc2cccc(OC[C@H]3CCCN3c3ccnc4ncnn34)c2C1 [Compound A38] | 0.01 to 1
CC(C)(C)OC(=O)N[C@H](CC#N)C(=O)N1CCc2cccc(OC[C@H]3CCCN3c3ccnc4ncnn34)c2C1 [Compound A39] | 0.01 to 1
N#CCCCCOC(=O)N1CCc2cccc(OC[C@H]3CCCN3c3ccnc4ncnn34)c2C1 [Compound A40] | 0.01 to 1
NCCCCN1CCc2cccc(OC[C@H]3CCCN3c3ccnc4ncnn34)c2C1 [Compound A41] | 0.01 to 1
NCCCCOC(=O)N1CCc2cccc(OC[C@H]3CCCN3c3ccnc4ncnn34)c2C1 [Compound A42] | 0.01 to 1
COc1cccc(C(=O)OC[C@H]2CCCN2c2ccnc3ncnn23)c1 [Compound A43] | 0.01 to 1
O=C(OC[C@H]1CCCN1c1ccnc2ncnn12)c1cccc(Br)c1 [Compound A44] | 0.01 to 1
O=C(OC[C@H]1CCCN1c1ccnc2ncnn12)c1cccc(I)c1 [Compound A45] | 0.01 to 1
O=C(OC[C@H]1CCCN1c1ccnc2ncnn12)c1cc(Cl)nc2ccccc12 [Compound A46] | 0.01 to 1
c1ccc2c(OC[C@H]3CCCN3c3ccnc4nsnc34)cccc2c1 [Compound A47] | > 10
FC(F)(F)c1cccc(COC[C@H]2CCCN2c2ccnc3ncnn23)c1 [Compound A48] | 1 to 10
Ic1cccc(COC[C@H]2CCCN2c2ccnc3ncnn23)c1 [Compound A49] | 1 to 10
CN(C)c1cccc(C(=O)OC[C@H]2CCCN2c2ccnc3ncnn23)c1 [Compound A50] | 0.01 to 1
COc1cccc(COC[C@H]2CCCN2c2ccnc3ncnn23)c1 [Compound A51] | 0.01 to 1
O=C(OC[C@H]1CCCN1c1ccnc2ncnn12)c1cccc(F)c1 [Compound A52] | 0.01 to 1
NC(=O)CCCC(=O)N1CCc2cccc(OC[C@H]3CCCN3c3ccnc4ncnn34)c2C1 [Compound A53] | 0.01 to 1
Fc1cccc(COC[C@H]2CCCN2c2ccnc3ncnn23)c1 [Compound A55] | 0.01 to 1
c1cncc(COC[C@H]2CCCN2c2ccnc3ncnn23)c1 [Compound A56] | 1 to 10

Structure (SMILES) | IC50 [µM]
O=C(O)Cc1ccccc1OC[C@H]1CCCN1c1ccnc2ncnn12 [Compound A57] | > 10
c1cc(COC[C@H]2CCCN2c2ccnc3ncnn23)ccn1 [Compound A58] | > 10
COC(=O)c1ccc2[nH]c(COC[C@H]3CCCN3c3ccnc4ncnn34)cc2c1 [Compound A59] | 0.01 to 1
O=C(OC[C@H]1CCCN1c1ccnc2ncnn12)c1cccc(C(F)(F)F)c1 [Compound A60] | > 10
O=C(OC[C@H]1CCCN1c1ccnc2ncnn12)c1ccc(Cl)nc1 [Compound A61] | 0.01 to 1
O=C(OC[C@H]1CCCN1c1ccnc2ncnn12)c1cccnc1Oc1ccccc1 [Compound A62] | 0.01 to 1
O=C(OC[C@H]1CCCN1c1ccnc2ncnn12)c1ccc(Oc2ccccc2)nc1 [Compound A64] | 0.01 to 1
Clc1cc(COC[C@H]2CCCN2c2ccnc3ncnn23)cc(Cl)n1 [Compound A65] | > 10
Brc1cccc(COC[C@H]2CCCN2c2ccnc3ncnn23)c1 [Compound A66, 7-[(R)-2-(3-Bromobenzyloxymethyl)pyrrolidin-1-yl]-[1,2,4]triazolo[1,5-a]pyrimidine] | 0.01 to 1
FC(F)(F)Oc1cccc(COC[C@H]2CCCN2c2ccnc3ncnn23)c1 [Compound A67, 7-[(R)-2-(3-Trifluoromethoxybenzyloxymethyl)-pyrrolidin-1-yl]-[1,2,4]triazolo[1,5-a]pyrimidine] | 0.01 to 1
O=C(OC[C@H]1CCCN1c1ccnc2ncnn12)c1ccccc1I [Compound A68, (R)-1-[1,2,4]Triazolo[1,5-a]pyrimidin-7-yl-pyrrolidin-2-ylmethyl 2-iodobenzoate] | 0.01 to 1
O=C(OC[C@H]1CCCN1c1ccnc2ncnn12)c1ccccn1 [Compound A69, (R)-1-[1,2,4]Triazolo[1,5-a]pyrimidin-7-yl-pyrrolidin-2-ylmethyl pyridine-2-carboxylate] | 0.01 to 1
O=C(OC[C@H]1CCCN1c1ccnc2ncnn12)c1cccnc1 [Compound A70] | 0.01 to 1
O=C(OC[C@H]1CCCN1c1ccnc2ncnn12)c1ccccc1 [Compound A71, (R)-1-[1,2,4]Triazolo[1,5-a]pyrimidin-7-yl-pyrrolidin-2-ylmethyl benzoate] | 0.01 to 1
CCOc1cccc(C(=O)OC[C@H]2CCCN2c2ccnc3ncnn23)c1 [Compound A72, (R)-1-[1,2,4]Triazolo[1,5-a]pyrimidin-7-yl-pyrrolidin-2-ylmethyl 3-ethoxybenzoate] | 0.01 to 1
O=C(OC[C@H]1CCCN1c1ccnc2ncnn12)c1cc(Cl)ccc1F [Compound A73, (R)-1-[1,2,4]Triazolo[1,5-a]pyrimidin-7-yl-pyrrolidin-2-ylmethyl 5-chloro-2-fluorobenzoate] | 0.01 to 1
O=C(OC[C@H]1CCCN1c1ccnc2ncnn12)c1cccc(CCl)c1 [Compound A74, (R)-1-[1,2,4]Triazolo[1,5-a]pyrimidin-7-yl-pyrrolidin-2-ylmethyl 3-chloromethylbenzoate] | 0.01 to 1
NCCCOC(=O)N1CCc2cccc(OC[C@H]3CCCN3c3ccnc4ncnn34)c2C1 [Compound A75] | 0.01 to 1
NCCCN1CCc2cccc(OC[C@H]3CCCN3c3ccnc4ncnn34)c2C1 [Compound A76] | 0.01 to 1
O=C1c2ccccc2C(=O)N1C[C@H]1CCCN1c1ccnc2ncnn12 [Compound A78] | 1 to 10
N#Cc1cccc(C(=O)OC[C@H]2CCCN2c2ccnc3ncnn23)c1 [Compound A79, (R)-1-[1,2,4]Triazolo[1,5-a]pyrimidin-7-yl-pyrrolidin-2-ylmethyl 3-cyanobenzoate] | 0.01 to 1
Nc1nc2nccc(N3CCC[C@@H]3COc3cccc4ccccc34)n2n1 [Compound A80] | 1 to 10
COC(=O)c1ccc2[nH]c(CC3CCCN3c3ccnc4ncnn34)cc2c1 (stereo not drawn) [Compound A81] | 0.01 to 1
